The source of these data is PubChem BioAssay AID330 (DTP/NCI, 2004).

The structures appear in SMILES notation. “And” between values parts separate entries of the source, which are not always exact repeats. Identical values can stand only once. Toxic doses and inconclusive results are not listed. Square brackets hold non-standard residues; d marks the D form. Peptide text beside a SMILES is read from it. * marks the point of attachment. Nle = CCCC[CH](N)C(=O)O; Cbz = O=C(OCc1ccccc1)*

The experiment concerns P388 leukemia ip, CD2F1 mice, survival T/C. As to the kind of experiment: NCI In Vivo Anticancer Drug Screen. Data for tumor model P388 Leukemia (intraperitoneal) in CD2F1 (CDF1) mice. The settings on record: endpoint: median survival time, higher = longer survival. The method in brief:
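Mice carrying the transplanted tumor received test compound or vehicle. Survival was recorded in each group, and the value is the treated-group measurement divided by that of the vehicle-treated control group.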

Where [1] appears, read: dose: 25.0 mg/kg/injection, schedule: Q01DX009 (ip), vehicle: saline with Tween-80.
The mark [2] stands for this setting: dose: 50.0 mg/kg/injection, schedule: Q01DX009 (ip), vehicle: saline with Tween-80.
[3] abbreviates: dose: 100.0 mg/kg/injection, schedule: Q01DX009 (ip), vehicle: saline with Tween-80.
The mark [4] stands for this setting: dose: 200.0 mg/kg/injection, schedule: Q01DX009 (ip), vehicle: saline with Tween-80.
[5] abbreviates: dose: 12.5 mg/kg/injection, schedule: Q01DX009 (ip), vehicle: saline with Tween-80.
The mark [6] stands for this setting: dose: 100.0 mg/kg/injection, schedule: Q04DX003 (ip), vehicle: saline with Tween-80.
Where [7] appears, read: dose: 200.0 mg/kg/injection, schedule: Q04DX003 (ip), vehicle: saline with Tween-80.
The mark [8] stands for this setting: dose: 400.0 mg/kg/injection, schedule: Q04DX003 (ip), vehicle: saline with Tween-80.
Where [9] appears, read: dose: 60.0 mg/kg/injection, schedule: Q01DX005 (ip), vehicle: saline with Tween-80.
Setting [10] is: dose: 120.0 mg/kg/injection, schedule: Q01DX005 (ip), vehicle: saline with Tween-80.
[11] abbreviates: dose: 240.0 mg/kg/injection, schedule: Q01DX005 (ip), vehicle: saline with Tween-80.
Setting [12] is: dose: 12.5 mg/kg/injection, schedule: Q01DX005 (ip), vehicle: saline with Tween-80.
Setting [13] is: dose: 25.0 mg/kg/injection, schedule: Q01DX005 (ip), vehicle: saline with Tween-80.
The mark [14] stands for this setting: dose: 50.0 mg/kg/injection, schedule: Q01DX005 (ip), vehicle: saline with Tween-80.
The mark [15] stands for this setting: dose: 50.0 mg/kg/injection, schedule: Q01DX009 (ip), vehicle: saline.
Setting [16] is: dose: 25.0 mg/kg/injection, schedule: Q04DX002 (ip), vehicle: saline with Tween-80.
[17] abbreviates: dose: 50.0 mg/kg/injection, schedule: Q04DX002 (ip), vehicle: saline with Tween-80.
The mark [18] stands for this setting: dose: 100.0 mg/kg/injection, schedule: Q04DX002 (ip), vehicle: saline with Tween-80.
The mark [19] stands for this setting: dose: 50.0 mg/kg/injection, schedule: Q01DX005 (ip), vehicle: Klucel (hydroxypropylcellulose) (HPC).
Setting [20] is: dose: 100.0 mg/kg/injection, schedule: Q01DX005 (ip), vehicle: Klucel (hydroxypropylcellulose) (HPC).
Where [21] appears, read: dose: 200.0 mg/kg/injection, schedule: Q01DX005 (ip), vehicle: Klucel (hydroxypropylcellulose) (HPC).

Regarding `O=C1NC(=O)C2(CCCC2)c2ccncc21`, the T/C is 96 % of control (dose: 6.25 mg/kg/injection, schedule: Q04DX002 (ip), vehicle: saline with Tween-80) and 96 % of control (dose: 12.5 mg/kg/injection, schedule: Q04DX002 (ip), vehicle: saline with Tween-80).
Take `O=C(O)CCNS(=O)(=O)c1ccc2c(c1)-c1ccccc1C2`: the T/C reads like this: under setting [1], 92 % of control; under setting [2], 102 % of control and 104 % of control and 97 % of control; under setting [3], 101 % of control and 107 % of control and 98 % of control; under setting [4], 102 % of control and 124 % of control.
As for `CC1=C2CCCCC2(O)OC1=O` (stereo not given), the T/C was 100 % of control (dose: 100.0 mg/kg/injection, schedule: Q01DX001 (ip), vehicle: saline); 100 % of control (dose: 200.0 mg/kg/injection, schedule: Q01DX001 (ip), vehicle: saline); 103 % of control (dose: 400.0 mg/kg/injection, schedule: Q01DX001 (ip), vehicle: saline).
With `O=C(O)c1cc(C(=O)CCCC(=O)c2cc(C(=O)O)c(O)c3ccccc23)c2ccccc2c1O`, the T/C was 100 % of control under setting [5], 100 % of control under setting [1], 87 % of control under setting [2] and 93 % of control under setting [3].
Take `CC(C)(C)N1CC(C(=O)c2ccccc2)C1c1ccccc1` (stereo not given): the T/C runs as follows: (dose: 50.0 mg/kg/injection, schedule: Q04DX003 (ip), vehicle: saline with Tween-80) 100 % of control; under setting [6], 98 % of control; under setting [7], 97 % of control; under setting [8], 97 % of control.
In the case of `CC(O)CCOC(C[N+](=O)[O-])C(Cl)(Cl)Cl` (stereo not given), the T/C under setting [2] was 101 % of control and 104 % of control; the T/C under setting [3] was 117 % of control; the T/C under setting [4] is 102 % of control and 120 % of control.
As to `COc1ccc(C)cc1NC(=O)ON=C1CCCCC1`, the T/C is, setting by setting: under setting [9], 95 % of control; under setting [10], 94 % of control; under setting [11], 100 % of control.
Consider `C/C(=N\NC(=S)Nc1ccc(C(=O)O)cc1)c1ccccn1`, for which the T/C reads like this: under setting [12], 110 % of control; under setting [13], 112 % of control; under setting [14], 109 % of control and 114 % of control.
`CC(CC=O)CCCC(C)(C)O` (stereo not given): the T/C was 100 % of control under setting [6], 100 % of control under setting [7] and 100 % of control under setting [8].
With `CCOc1c(N=Nc2cccc([N+](=O)[O-])c2)c(C)nn1C(N)=S`, the T/C runs as follows: (dose: 15.0 mg/kg/injection, schedule: Q01DX005 (ip), vehicle: Klucel + Tween-80) 92 % of control; (dose: 30.0 mg/kg/injection, schedule: Q01DX005 (ip), vehicle: Klucel + Tween-80) 94 % of control.
Turning to `c1c[nH]cn1`, the T/C under setting [15] is 97 % of control.
Consider `CCCCCC(N)C(C)=O` (stereo not given), for which the T/C reads like this: (dose: 12.5 mg/kg/injection, schedule: Q01DX009 (ip), vehicle: saline) 110 % of control; (dose: 25.0 mg/kg/injection, schedule: Q01DX009 (ip), vehicle: saline) 106 % of control; under setting [2], 106 % of control and 97 % of control; under setting [15], 105 % of control; under setting [4], 187 % of control; (dose: 400.0 mg/kg/injection, schedule: Q01DX009 (ip), vehicle: saline with Tween-80) 187 % of control.
As to `COc1cc2c(c(OC)c1OC)-c1ccc(N)c(=O)cc1[C@@H](NC(C)=O)CC2`, the T/C was 109 % of control (dose: 0.5 mg/kg/injection, schedule: Q01DX010 (ip), vehicle: saline); 118 % of control (dose: 1.0 mg/kg/injection, schedule: Q01DX010 (ip), vehicle: saline); 86 % of control (dose: 3.12 mg/kg/injection, schedule: Q01DX009 (ip), vehicle: Klucel (hydroxypropylcellulose) (HPC)); 108 % of control (dose: 6.25 mg/kg/injection, schedule: Q01DX009 (ip), vehicle: Klucel (hydroxypropylcellulose) (HPC)).
Turning to `Cn1/c2cc/c1=C(\c1ccccc1)c1ccc([n-]1)/C(c1ccccc1)=c1/cc/c([nH]1)=C(\c1ccccc1)c1ccc([n-]1)/C=2c1ccccc1.O.O=S(=O)(O)C(F)(F)F.[Cu+2]`, the T/C under setting [5] is 102 % of control; the T/C under setting [1] was 91 % of control; the T/C (dose: 50.0 mg/kg/injection, schedule: Q01DX009 (ip), vehicle: other) was 88 % of control; the T/C under setting [2] was 91 % of control.
As to `CCN(CC)CCNc1cc(O)c2c(c1O)C(=O)c1ccccc1C2=O`, the T/C runs as follows: under setting [16], 105 % of control; under setting [17], 98 % of control; under setting [18], 103 % of control and 107 % of control.
Take `CC1C(c2ccc3c(c2)OCO3)CC(Cl)CC12C=C1OCOC1=CC2=O` (stereo not given): the T/C (dose: 8.75 mg/kg/injection, schedule: Q01DX005 (ip), vehicle: Klucel (hydroxypropylcellulose) (HPC)) was 101 % of control; the T/C (dose: 17.5 mg/kg/injection, schedule: Q01DX005 (ip), vehicle: Klucel (hydroxypropylcellulose) (HPC)) is 101 % of control; the T/C (dose: 35.0 mg/kg/injection, schedule: Q01DX005 (ip), vehicle: Klucel (hydroxypropylcellulose) (HPC)) is 105 % of control.
Consider `CN(C)c1ccc(C(=O)C2(Cl)CCCCC2)cc1`, for which the T/C is 97 % of control (dose: 100.0 mg/kg/injection, schedule: Q01DX001 (ip), vehicle: Klucel (hydroxypropylcellulose) (HPC)); 100 % of control (dose: 200.0 mg/kg/injection, schedule: Q01DX001 (ip), vehicle: Klucel (hydroxypropylcellulose) (HPC)); 96 % of control (dose: 400.0 mg/kg/injection, schedule: Q01DX001 (ip), vehicle: Klucel (hydroxypropylcellulose) (HPC)).
With `C[c-]1[c-][c-][c-][c-]1.C[c-]1[c-][c-][c-][c-]1.[C-]#[O+].[C-]#[O+].[C-]#[O+].[C-]#[O+].[C-]#[O+].[C-]#[O+].[Mo].[Mo]`, the T/C by setting is: (dose: 100.0 mg/kg/injection, schedule: Q01DX005 (ip), vehicle: saline with Tween-80) 98 % of control; (dose: 200.0 mg/kg/injection, schedule: Q01DX005 (ip), vehicle: saline with Tween-80) 93 % of control.
Take `O=C1SC(=NC2CCCCC2)N(C2CCCCC2)/C1=C1\C(=O)SC(=NC2CCCCC2)N1C1CCCCC1`: the T/C (dose: 15.0 mg/kg/injection, schedule: Q01DX005 (ip), vehicle: saline with Tween-80) is 92 % of control and the T/C (dose: 30.0 mg/kg/injection, schedule: Q01DX005 (ip), vehicle: saline with Tween-80) was 90 % of control.
Consider `COc1ccc2c(c1OC)C(=C(Cl)Cl)N1CCc3cc4c(cc3C1=C2C=O)OCO4`, for which the T/C reads like this: under setting [12], 98 % of control; under setting [13], 92 % of control; under setting [14], 90 % of control and 96 % of control.
On to `O=C(Nc1cc2c3ccccc3ccc2c2ccccc12)C(Cl)Cl`, for which the T/C is 100 % of control under setting [9], 100 % of control under setting [10] and 102 % of control under setting [11].
As to `N#CC(C#N)=Cc1ccc2c(c1)CCC2`, the T/C is, setting by setting: under setting [1], 90 % of control; under setting [2], 95 % of control; under setting [3], 109 % of control.
Turning to `O=C1NC(=O)C2(Br)Nc3ccc(Br)cc3C(=O)C2N1` (stereo not given), the T/C is 100 % of control under setting [19], 98 % of control under setting [20] and 90 % of control under setting [21].
In the case of `COc1ccc(/C=N\N=C(/[O-])c2ccccc2O)cc1.COc1ccc(/C=N\N=C(/[O-])c2ccccc2O)cc1.[Cu+2].[OH3+].[OH3+]`, the T/C is 98 % of control under setting [16], 93 % of control under setting [17] and 93 % of control under setting [18].
`O=C(OC1CCC2(CC1)SCCS2)c1ccccc1`: the T/C is 100 % of control under setting [6], 100 % of control under setting [7] and 104 % of control under setting [8].
For `CCCCC(NC(=O)OCc1ccccc1)C(=O)NC(CCSC)C(=O)O` (stereo not given) (Cbz-[Nle]-Met-OH; configuration not given here), the T/C is, setting by setting: under setting [19], 96 % of control; under setting [20], 111 % of control; under setting [21], 101 % of control.
